Experimental findings from patent US20110093959A1, “CRYPTOTIS PARVA SCREENING MODEL FOR ANTIEMETIC POTENTIAL” (priority 2008, published 2011) are described below.

Assay [1] deals with GR73632-induced emesis and scratching in the Least Shrew. Kind of assay: Antagonist interaction study against GR73632 (5 mg/kg, i.p.)-induced emesis and scratching. The assay is classed as in vivo, Cryptotis parva. The text has this:
The present protocols were based upon preliminary studies as well as published findings in the Least Shrew. Darmani, 2001a; Darmani et al., 69 Pharmacol. Biochem. Behay. 239-49 (2001b). On the test day, the shrews were allowed to acclimate to the test laboratory for at least one hour prior to experimentation. To habituate the animals to the test environment, each shrew was randomly selected and transferred to a 20 cm×18 cm×21 cm clean clear plastic cage and offered four mealworms (Tenebrio sp.) 30 min prior to experimentation.
The latter doses of SP and GR73632 were chosen for subsequent antagonist interaction studies to pharmacologically characterize the role of NK1 receptors in the mediation of induced emesis by the use of: (1) two selective neurokinin NK1 receptor antagonists (CP99,994 and L733060) (Watson et al., 115 Br. J. Phramacol. 84-94 (1995); Guiard et al., 89 J. Neurochem. 54-63 (2004)); (2) an NK2 receptor antagonist (GR159897) (Beresford et al., 272 Eur. J. Pharmacol. 241-48 (1995)); and (3) an NK3 receptor antagonist (SB218795) (Salthun-Lassalle et al., 1995).
For the above drug interaction studies, different doses (i.p.) of either CP99,994 (0, 5, 10, and 20 mg/kg, n=10-14 shrews per group); L733060 (0, 5, 10, and 20 mg/kg, n=10-14 shrews per group), GR159897 (0 mg/kg and 20 mg/kg, n=8 per group) or SB218795 (0 or 20 mg/kg, n=7-8 per group) were administered to different groups of shrews 30 min prior to injection of an emetic dose (5 mg/kg, i.p.) of the NK1-receptor agonist GR73632. Emesis and scratchings were recorded for 30 min immediately following GR73632 administration as described above. The antiemetic effect of CP99,994 (0, 5, and 10 mg/kg, n=9-10 animals per group) was also investigated in a similar manner against SP (50 mg/kg, i.p.)-induced emesis.
The data on the frequency of emesis and scratchings were analyzed by the Kruskal-Wallis (KW) nonparametric one-way analysis of variance (ANOVA) and post hoc analysis by Dunn's multiple comparisons test or Mann-Whitney test. A P value of <0.05 was necessary to attain statistical significance. The incidence of emesis (number of shrews vomiting) was analyzed by the Fisher's exact test to determine whether there were differences between groups. When appropriate, pairwise comparisons were also made by this method. Two-way analysis of variance using the Kruskal-Wallis or Fisher's exact tests were initially utilized to respectively analyze the dose-response results of GR73632 on emesis and scratching behaviors, and percentage of shrews vomiting in saporin- and corresponding saline-pretreated control shrews. […] For some emesis data, the two-tailed Mann-Whitney test was used. The SP tissue concentration data were analyzed by a one-way ANOVA followed by Dunnett's t test as post hoc analysis. Fos-IR was quantified by counting immunopositive nuclei within each hemisection containing the region of interest (ROI). The number of nuclei was averaged across sections with the ROI for each animal, and the group mean and standard error obtained.

Assay [2] has as its system SP-induced emesis in the Least Shrew. Kind of assay: Antagonist interaction study against SP (50 mg/kg, i.p.)-induced emesis. The format is in vivo, Cryptotis parva. Particulars: antagonist 10 mg/kg i.p., 30 min before SP 50 mg/kg i.p. An excerpt:
The present protocols were based upon preliminary studies as well as published findings in the Least Shrew. Darmani, 2001a; Darmani et al., 69 Pharmacol. Biochem. Behay. 239-49 (2001b). On the test day, the shrews were allowed to acclimate to the test laboratory for at least one hour prior to experimentation. To habituate the animals to the test environment, each shrew was randomly selected and transferred to a 20 cm×18 cm×21 cm clean clear plastic cage and offered four mealworms (Tenebrio sp.) 30 min prior to experimentation. […]
For the above drug interaction studies, different doses (i.p.) of either CP99,994 (0, 5, 10, and 20 mg/kg, n=10-14 shrews per group); L733060 (0, 5, 10, and 20 mg/kg, n=10-14 shrews per group), GR159897 (0 mg/kg and 20 mg/kg, n=8 per group) or SB218795 (0 or 20 mg/kg, n=7-8 per group) were administered to different groups of shrews 30 min prior to injection of an emetic dose (5 mg/kg, i.p.) of the NK1-receptor agonist GR73632. Emesis and scratchings were recorded for 30 min immediately following GR73632 administration as described above. […]
The data on the frequency of emesis and scratchings were analyzed by the Kruskal-Wallis (KW) nonparametric one-way analysis of variance (ANOVA) and post hoc analysis by Dunn's multiple comparisons test or Mann-Whitney test. […]

On to `COc1ccccc1CN[C@H]1CCCN[C@H]1c1ccccc1` (relative stereo) [CP99,994, (2S, 3S)-Cis-3 (2-methoxybenzylamino-2-phenylpiperidine)], for which, in assay [1] (antagonist 5 mg/kg i.p.), the “reduction in frequency of GR73632-induced emesis” value (shortened to “reduction in frequency”) is 61% and the “reduction in percentage of shrews vomiting in response to GR73632” value (“reduction in percentage” below) is 2.9%. Also, in assay [1] (antagonist 10 mg/kg i.p.), the “reduction in frequency” value turned out to be 87% and the “reduction in percentage” value is on record as 60%. For the same compound, in assay [1] (antagonist 20 mg/kg i.p.), the “reduction in frequency” value was determined as 97% and the “reduction in percentage” value is on record as 73%. Besides, the “reduction in the frequency of scratching” value in assay [1] (antagonist 5, 10, and 20 mg/kg, failed to attain significance) is “up to 49%”. For the same compound, the “onset of first emesis induced by GR73632” value in assay [1] (at highest tested effective antiemetic doses) is “only delayed the onset of first emesis”. In addition, in assay [2], the “attenuation of the frequency of SP-induced emesis” value is reported as 84% and the “shrews protected from SP-induced emesis” value is on record as 70%.
